Like-named read-outs stand apart in the source and are kept apart here.
Legend:
[1] = In vitro metabolic stability in hepatic microsomes; format: in vitro ADME, rat; settings: for % Remaining after 10 min incubation with liver microsomes: NADPH, compound 5 μM; for % Remaining: parent molecule after 30 min incubation with rat liver microsomes; for metabolic stability (in words): hepatic microsomes
Description: Compounds, each at 5 μM, were incubated for specified times at 37° C. with rat liver microsomes (1 mg protein/ml; Sigma-Aldrich, St. Louis, Mo.) in potassium phosphate buffer (100 mM) containing 1 mM NADPH. The mixture was then chilled on ice, and 0.5 ml of ice-cold ethyl acetate was added.

[2] = biological target: T1, UT-B (Mus musculus, UniProt Q8VHL0); experiment: Erythrocyte lysis assay of UT-B inhibition; format: cell-based; set-up: Screening was performed using mouse erythrocytes, which strongly express UT-B; endogenous in cells; host or cells: erythrocytes in whole blood of wild-type CD1 mice; settings: read-out: IC50
T1 sequence (Q8VHL0 1-384): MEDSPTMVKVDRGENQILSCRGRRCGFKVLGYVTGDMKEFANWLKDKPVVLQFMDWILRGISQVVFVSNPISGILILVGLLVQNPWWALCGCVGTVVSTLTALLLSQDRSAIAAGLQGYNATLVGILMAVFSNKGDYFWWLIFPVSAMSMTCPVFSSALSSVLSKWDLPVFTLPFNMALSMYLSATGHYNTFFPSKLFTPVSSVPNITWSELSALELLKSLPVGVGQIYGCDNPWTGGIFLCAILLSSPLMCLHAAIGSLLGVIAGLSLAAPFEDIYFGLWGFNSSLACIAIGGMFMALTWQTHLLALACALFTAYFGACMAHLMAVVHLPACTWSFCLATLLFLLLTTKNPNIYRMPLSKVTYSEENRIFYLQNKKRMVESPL
Description: Screening was performed using mouse erythrocytes, which strongly express UT-B and are highly water permeable because the cells also express aquaporin-1 (AQP1) water channels. The screening method involved assay of erythrocyte lysis in response to a large, outwardly directed gradient of acetamide, a urea analog that is transported efficiently by UT-B. A large, outwardly directed gradient of acetamide causes transient cell swelling, but little cell lysis, because UT-B-facilitated acetamide efflux limits water influx (see FIG. 1A). UT-B inhibition prevents acetamide efflux, allowing unopposed cell swelling and consequent cell lysis, which was recorded by reduced near-infrared light absorption at 710 nm.
Primary screening was done using a collection of 100,000 diverse, drug-like compounds from commercial sources (ChemDiv, San Diego, Calif.; Asinex, Winston-Salem, N.C.). […] Vigorous mixing was achieved by repeated pipetting. Erythrocyte lysis was quantified by absorbance at 710 nm wavelength, made within 5 min after hypo-osmolar shock. […] For analysis of structure-activity relationships >900 commercially available analogs (ChemDiv and Asinex) were tested.

[3] = Table 1, commercially available analogues, erythrocyte lysis assay
[4] = Table 2, synthesized inhibitors, red blood cell lysis assay (n = 3), single-site saturation model

| Compound | % Remaining after 10 min incubation with liver microsomes [1] | IC50 [2, 3] | IC50 ([2]; erythrocyte lysis assay) | % Remaining [1] | IC50 [2, 4] | metabolic stability (in words) [1] |
| --- | --- | --- | --- | --- | --- | --- |
| CCc1ccc(S(=O)(=O)c2nnn3c2nc(NCc2ccc(F)cc2)c2sccc23)cc1 [Compound 2ca, [3-(4-ethyl-benzenesulfonyl)-thieno[2,3-e][1,2,3]triazolo[1,5-a]pyrimidin-5-yl]-(4-fluoro-benzyl)-amine] | 41% | 384 nM | – | – | – | – |
| CCc1ccc(S(=O)(=O)c2nnn3c2nc(NCCCOC)c2sccc23)cc1 [Compound 2cb, {3-[4-ethyl-benzenesulfonyl]-thieno[2,3-e][1,2,3]triazolo[1,5-a]pyrimidin-5-yl}-3-methoxypropyl-amine] | <2% | – | 212 nM | – | – | – |
| CCc1ccc(S(=O)(=O)c2nnn3c2nc(NC(C)C)c2sccc23)cc1 [Compound 2ce] | 4% | 948 nM | – | – | – | – |
| CCc1ccc(S(=O)(=O)c2nnn3c2nc(NCCCOC(C)C)c2sccc23)cc1 [Compound 2cf, {3-[4-ethyl-benzenesulfonyl]-thieno[2,3-e][1,2,3]triazolo[1,5-a]pyrimidin-5-yl}-3-(1-methylethoxyl)propyl-amine] | <2% | 433 nM | – | – | – | – |
| CCc1ccc(S(=O)(=O)c2nnn3c2nc(NCCCN2CCCC2=O)c2sccc23)cc1 [Compound 2cg] | 2% | 1500 nM | – | – | – | – |
| Cc1ccc(C)c(S(=O)(=O)c2nnn3c2nc(NCCC(C)C)c2sccc23)c1 [Compound 2cj] | 61% | 1450 nM | – | – | – | – |
| CCCCNc1nc2c(S(=O)(=O)c3cc(C)ccc3C)nnn2c2ccsc12 [Compound 2cn] | 57% | 865 nM | – | – | – | – |
| COCCNc1nc2c(S(=O)(=O)c3cc(C)ccc3C)nnn2c2ccsc12 [Compound 2co, {3-[2,5-dimethyl-benzenesulfonyl]-thieno[2,3-e][1,2,3]triazolo[1,5-a]pyrimidin-5-yl}-2-methoxyethyl-amine] | 29% | 1190 nM | – | – | – | – |
| COCCCNc1nc2c(S(=O)(=O)c3cc(C)ccc3C)nnn2c2ccsc12 [Compound 2cr, {3-[2,5-dimethyl-benzenesulfonyl]-thieno[2,3-e][1,2,3]triazolo[1,5-a]pyrimidin-5-yl}-3-methoxypropyl-amine] | 26% | 1400 nM | – | – | – | – |
| COCCNc1nc2c(S(=O)(=O)c3ccc(Br)cc3)nnn2c2ccsc12 [Compound 2ct] | 53% | 959 nM | – | – | – | – |
| CCCCNc1nc2c(S(=O)(=O)c3ccc(Br)cc3)nnn2c2ccsc12 [Compound 2cu] | 76% | 1900 nM | – | – | – | – |
| CC(C)c1ccc(S(=O)(=O)c2nnn3c2nc(NCc2cccs2)c2sccc23)cc1 [Compound 3a, [3-(4-Isopropylbenzenesulfonyl)-thieno[2,3-e][1,2,3]triazolo[1,5-a]pyrimidin-5-yl]-thiophen-2-ylmethyl-amine] | – | 125 nM | – | <5% | 153 nM | – |
| CC(C)c1ccc(S(=O)(=O)c2nnn3c2nc(NCc2ccco2)c2sccc23)cc1 [Compound 3b, Furan-2-ylmethyl-[3-(4-isopropyl-benzenesulfonyl)-thieno[2,3-e][1,2,3]triazolo[1,5-a]pyrimidin-5-yl]-amine] | – | – | – | >99% | 16600 nM | – |
| O=S(=O)(c1ccc(C(F)(F)F)cc1)c1nnn2c1nc(NCc1cccs1)c1sccc12 [Compound 3c, Thiophen-2-ylmethyl-[3-(4-trifluoromethyl-benzenesulfonyl)-thieno[2,3-e][1,2,3]triazolo[1,5-a]pyrimidin-5-yl]-amine] | – | – | – | 99% | 537 nM | improved metabolic stability |
| O=S(=O)(c1ccc(OC(F)(F)F)cc1)c1nnn2c1nc(NCc1cccs1)c1sccc12 [Compound 3d, Thiophen-2-ylmethyl-[3-(4-trifluoromethoxy-benzenesulfonyl)-thieno[2,3-e][1,2,3]triazolo[1,5-a]pyrimidin-5-yl]-amine] | – | – | – | 95% | 1120 nM | improved metabolic stability |

From patent US9303042B2, “Triazolothienopyrimidine compound inhibitors of urea transporters and methods of using inhibitors” (The Regents of the University of California, priority 2012, dated 2016)
